Assay results from ChEMBL document CHEMBL3639070, “19-nor-steroid derivatives with a 15Œ±,16Œ±-methylene group and a saturated 17,17-spirolactone ring, use thereof, and medicaments containing said derivatives” (2015).

Biological target: T1, Progesterone receptor (Homo sapiens, UniProt P06401)
T1 sequence (P06401 whole entry): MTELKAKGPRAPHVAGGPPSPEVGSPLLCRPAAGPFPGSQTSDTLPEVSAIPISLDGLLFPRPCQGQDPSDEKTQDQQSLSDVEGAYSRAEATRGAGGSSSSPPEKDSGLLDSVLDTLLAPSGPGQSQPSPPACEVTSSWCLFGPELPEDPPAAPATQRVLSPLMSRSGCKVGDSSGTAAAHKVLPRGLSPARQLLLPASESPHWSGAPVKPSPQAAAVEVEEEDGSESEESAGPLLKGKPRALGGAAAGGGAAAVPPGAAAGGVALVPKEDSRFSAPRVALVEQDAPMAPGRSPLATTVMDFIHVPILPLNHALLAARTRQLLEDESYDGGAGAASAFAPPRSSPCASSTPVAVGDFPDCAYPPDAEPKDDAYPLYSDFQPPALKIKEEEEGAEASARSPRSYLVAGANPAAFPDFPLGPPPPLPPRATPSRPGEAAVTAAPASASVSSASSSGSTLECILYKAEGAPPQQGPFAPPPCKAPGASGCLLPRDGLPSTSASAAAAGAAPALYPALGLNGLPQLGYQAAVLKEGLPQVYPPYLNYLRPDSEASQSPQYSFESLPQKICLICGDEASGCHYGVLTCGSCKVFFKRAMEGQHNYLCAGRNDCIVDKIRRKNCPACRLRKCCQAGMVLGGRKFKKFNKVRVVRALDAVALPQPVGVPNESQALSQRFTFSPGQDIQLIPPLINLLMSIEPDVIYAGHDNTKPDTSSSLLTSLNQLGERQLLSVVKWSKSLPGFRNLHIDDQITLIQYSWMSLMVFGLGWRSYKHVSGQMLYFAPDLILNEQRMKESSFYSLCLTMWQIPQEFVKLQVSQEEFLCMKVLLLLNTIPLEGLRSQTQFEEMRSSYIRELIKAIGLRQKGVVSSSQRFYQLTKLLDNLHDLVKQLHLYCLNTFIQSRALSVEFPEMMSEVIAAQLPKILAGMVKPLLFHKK
Assay: Binding Assay: Using cytosol from progesterone receptor-expressing insect cells (Hi5), competitive binding to the progesterone receptor was determined from the ability to displace 3H-progesterone as reference substance from the receptor.

C[C@]12CCC3C4CCC(=O)C=C4[C@@H]4C[C@@H]4C3C1C1CC1[C@@]21CCC(=O)O1 (stereo partly specified) showed an IC50 of 16 nM.
